Laboratory results taken from patent publication US20250170116A1, “PHARMACEUTICAL COMPOSITION FOR PREVENTING AND/OR TREATING RENAL DISEASE” (priority 2022, published 2025).

Legend:
[1] = system: rats with puromycin aminonucleoside-induced kidney injury (focal segmental glomerulosclerosis / minimal change nephrotic syndrome model rats); assay: Test Example 1: action of Compound 011 in rats with puromycin aminonucleoside-induced kidney injury; type: in vivo, S.D. rats; settings: for urinary protein levels lower compared with PAN group: Bradford method
Method: Eight-week-old S.D. rats (male, 8 rats) were intraperitoneally injected with 120 mg/kg of puromycin aminonucleoside (PAN) under anesthesia (day 0). PAN damages glomerular basement membrane cells (podocytes) and induces glomerular injury in rats. The PAN-treated rats were focal segmental glomerulosclerosis model rats and minimal change nephrotic syndrome model rats. The test compound (Compound 011) was mixed with food and administered (10 mg/kg/day) on or after the third day after the PAN injection. The rats were kept under a 12-hour light-dark cycle (lights on from 7:00 am to 7:00 pm, and lights off from 7:00 pm to 7:00 am the next morning), and food and water were provided ad libitum (PAN+011 group). Urine was collected on day 0, i.e., the day of PAN administration, and on days 3, 10, 20, and 27 after PAN administration. Urine was collected by placing the rats in metabolic cages for 17 hours (5:00 pm to 10:00 am the next morning). Separately, as controls, a group without PAN treatment and without test compound administration (control group, male, 3 animals), a group without PAN treatment but with test compound administration (control+011 group, male, 5 animals), and a group with PAN treatment but without test compound administration (PAN group, male, 9 animals) were also tested in the same manner. The urinary protein levels were measured by using the Bradford method. The serum albumin levels were measured by using an improved BCP (bromocresol purple) method. In the PAN group, the number of serum samples was 8 because one animal from which a serum sample was unable to be collected was excluded. On day 27 after PAN administration, the left kidney of each rat was removed, the size was visually observed, and the weight was measured. The number of left kidney samples of the control group was 3 because the left kidneys of three animals in this group were all removed and weighed. The number of left kidney samples of the control+011 group was 4 because the left kidneys of 4 of the 5 animals in this group were removed and weighed. The number of left kidney samples of the PAN group was 7 because the left kidneys of 7 of the 9 animals in this group were removed and weighed. The number of left kidney samples of the PAN+011 group was 7 because the left kidneys of 7 of the 8 animals in this group were removed and weighed.

[2] = system: rats with puromycin aminonucleoside-induced kidney injury (focal segmental glomerulosclerosis model rats); assay: Test Example 3: action of Compound 011 in PAN-treated rats with more severe symptoms for a longer period; type: in vivo, S.D. rats
Method: The action of Compound 011 on PAN-treated rats with more severe symptoms for a longer period of time than in Test Example 1 was studied. Eight-week-old S.D. rats (male, 8 rats) were intraperitoneally injected with 120 mg/kg of puromycin aminonucleoside (PAN) under anesthesia. Then, one month later, PAN was again injected intraperitoneally at 60 mg/kg. PAN creates focal segmental glomerulosclerosis model rats by disrupting glomerular basement membrane cells (podocytes) (Kim, J Mol Med, 2018, 96, 631-644). Furthermore, these model rats are known to develop chronic kidney damage accompanied by lymphocyte and macrophage infiltration (Ornellas, Sci Rep, 2019, 9:19604). The test compound (Compound 011) was mixed with food and administered (10 mg/kg/day) on or after the third day after the PAN injection. The rats were kept under a 12-hour light-dark cycle (lights on from 7:00 am to 7:00 pm, and lights off from 7:00 pm to 7:00 am the next morning), and food and water were provided ad libitum (PAN+011 group). Chronic proteinuria may sometimes occur after the first administration of PAN without a second administration of PAN. […] Two months after the first administration of PAN, the kidneys of the rats were removed, their sizes were visually observed, and their weights were measured. The number of kidney samples was 4 for the PAN group and was 6 for the PAN+011 group. Subsequently, the kidneys were fixed with 4% paraformaldehyde/PBS and then paraffin-embedded, and sections were prepared. The sections were treated with PAS (periodic acid-Schiff) staining, and PAS-stained positive areas (inflammatory cell areas) were evaluated. To extract RNA, a portion of tissue around the surface layer of the kidney was quickly frozen to −80° C. cDNA was produced from RNA extracted from the tissue by reverse transcriptase, and gene expression was evaluated by real-time PCR. TB Green Premix Ex Taq II (Takara Bio Inc.) was used as a reagent for the reaction, and a QuantStudio 5 system (Thermo Fisher) was used for the analysis.

[3] = PAN+011 group vs PAN group, two months after PAN
[4] = PAN+011 group, after 2 months, 10 mg/kg/day mixed with food, *p<0.03

SMILES: O=C(O)c1cnc(N2CCN(c3noc4cccc(C(F)(F)F)c34)CC2)c(Cl)c1 [Compound 011, 5-Chloro-6-(4-(4-(trifluoromethyl)benzo[d]isoxazol-3-yl)piperazin-1-yl)nicotinic acid]
- urinary protein levels lower compared with PAN group ([1]; PAN+011 group vs PAN group, day 10 after PAN, 10 mg/kg/day mixed with food): 38%
- serum albumin levels ([1]; PAN+011 group vs PAN group, day 27, improved BCP method, **p<0.01): almost no PAN-treatment-induced decrease in serum albumin levels
- left kidney weight per rat body weight ([1]; PAN+011 group vs PAN group, day 27 after PAN): smaller increase in kidney weights
- urinary protein levels lower compared with PAN group ([1]; PAN+011 group vs PAN group, day 27 after PAN, 10 mg/kg/day mixed with food): 48%
- urinary protein levels, control+011 group vs control group ([1]; rats without PAN treatment, 10 mg/kg/day mixed with food): No difference
- CD4 expression level in kidney tissue (quantitative PCR, relative to GAPDH) [2, 3]: significantly decreased
- CD86 expression level in kidney tissue (quantitative PCR, relative to GAPDH) [2, 3]: significantly decreased
- TGF-β expression level in kidney tissue (quantitative PCR, relative to GAPDH) [2, 3]: significantly decreased
- left kidney weight per rat body weight, decrease compared with PAN group [2, 4]: 29%
- right kidney weight, decrease compared with PAN group [2, 4]: 28%
- suppression of formation of tertiary lymphoid tissue-like structures (PAS-stained positive area) ([2]; kidney sections two months after PAN, on average): ≥ 50%
